Experimental data from patent US9365584B2, “Thieno [2,3-B] pyridinedione activators of AMPK and therapeutic uses thereof” (Poxel, priority 2009, dated 2016).

Each compound was assayed on AMPK (assay: AMPK enzyme activity assay (Delfia technology, AMARA peptide substrate)). Details: compound at 30 μM vs AMP at 200 μM.
Type: biochemical
Protocol: The following biological test allows the determination of the efficacy of compounds of formula (1) onto AMPK protein.
AMPK enzyme activities were assayed by using a Delfia technology. AMPK enzyme activities were carried out in microtiter plates in the presence of a synthetic peptide substrate (AMARAASAAALARRR, the “AMARA” peptide) and activators in serial dilutions. Reactions were initiated by the addition of AMPK. Enzyme activity was assayed by using an anti-phosphoserine antibody to measure the quantity of phosphate incorporated into the AMARAA.
No: Number of the molecule
Activity: Ratio between the % of control (basal activity) of compound of formula (1) at 30 μM and the % of control (basal activity) of AMP (natural substrate) at 200 μM.

| SMILES | Activity: Ratio between the % of control (basal activity) of compound of formula (1) at 30 μM and the % of control (basal activity) of AMP (natural substrate) at 200 μM |
| --- | --- |
| CCc1ccc(-c2csc3c2C(=O)C(C)(c2ccccc2)C(=O)N3)c(OC)c1 (centres unmarked) [No 16, 3-(4-ethyl-2-methoxy-phenyl)-5-methyl-5-phenyl-7H-thieno[2,3-b]pyridine-4,6-dione] | A (0%<A<50%) |
| CCOc1ccc(C2(C)C(=O)Nc3scc(-c4ccc(C)cc4F)c3C2=O)cc1 (centres unmarked) [No 17, 5-(4-ethoxyphenyl)-3-(2-fluoro-4-methyl-phenyl)-5-methyl-7H-thieno[2,3-b]pyridine-4,6-dione] | A (0%<A<50%) |
| CC1(C)C(=O)Nc2scc(-c3ccccc3)c2C1=O [No 18, 5,5-dimethyl-3-phenyl-7H-thieno[2,3-b]pyridine-4,6-dione] | A (0%<A<50%) |
| CCOc1ccc(C2(C)C(=O)Nc3sc(C)c(-c4ccc(F)c(C)c4O)c3C2=O)cc1 (centres unmarked) [No 19, 5-(4-ethoxyphenyl)-3-(4-fluoro-2-hydroxy-3-methyl-phenyl)-2,5-dimethyl-7H-thieno[2,3-b]pyridine-4,6-dione] | A (0%<A<50%) |
| O=C1Nc2sc(Cl)c(-c3ccccc3)c2C(=O)C1(F)c1ccccc1 (centres unmarked) [No 20, 2-chloro-5-fluoro-3,5-diphenyl-7H-thieno[2,3-b]pyridine-4,6-dione] | C (C≧75%) |
| CCOc1ccc(C2(C)C(=O)Nc3scc(-c4ccc(Cl)cc4OC)c3C2=O)cc1 (centres unmarked) [No 21, 3-(4-chloro-2-methoxy-phenyl)-5-(4-ethoxyphenyl)-5-methyl-7H-thieno[2,3-b]pyridine-4,6-dione] | A (0%<A<50%) |
| CCOc1ccc(C2(C)C(=O)Nc3sc(Cl)c(-c4ccc(C)cc4F)c3C2=O)cc1 (centres unmarked) [No 22, 2-chloro-5-(4-ethoxyphenyl)-3-(2-fluoro-4-methyl-phenyl)-5-methyl-7H-thieno[2,3-b]pyridine-4,6-dione] | B (50%≦B<75%) |
| CCOc1ccc(C2(C)C(=O)Nc3scc(-c4ccc(C)c(F)c4O)c3C2=O)cc1 (centres unmarked) [No 23, 5-(4-ethoxyphenyl)-3-(3-fluoro-2-hydroxy-4-methyl-phenyl)-5-methyl-7H-thieno[2,3-b]pyridine-4,6-dione] | A (0%<A<50%) |
| Cc1ccc(-c2csc3c2C(=O)C(C)(c2ccc(O)cc2)C(=O)N3)c(O)c1F (centres unmarked) [No 24, 3-(3-fluoro-2-hydroxy-4-methyl-phenyl)-5-(4-hydroxy-phenyl)-5-methyl-7H-thieno[2,3-b]pyridine-4,6-dione] | A (0%<A<50%) |
| O=C1Nc2scc(-c3ccc(F)cc3O)c2C(=O)C1(F)c1ccccc1 (centres unmarked) [No 25, 5-fluoro-3-(4-fluoro-2-hydroxy-phenyl)-5-phenyl-7H-thieno[2,3-b]pyridine-4,6-dione] | C (C≧75%) |
| CC1(c2ccccc2)C(=O)Nc2sc(Cl)c(-c3ccc(F)cc3)c2C1=O (centres unmarked) [No 26, 2-chloro-3-(4-fluorophenyl)-5-methyl-5-phenyl-7H-thieno[2,3-b]pyridine-4,6-dione] | A (0%<A<50%) |
| CC1(c2cccc(F)c2)C(=O)Nc2sc(Cl)c(-c3ccccc3)c2C1=O (centres unmarked) [No 27, 2-chloro-5-(3-fluorophenyl)-5-methyl-3-phenyl-7H-thieno[2,3-b]pyridine-4,6-dione] | A (0%<A<50%) |
| CC1(c2ccccc2F)C(=O)Nc2sc(Cl)c(-c3ccccc3)c2C1=O (centres unmarked) [No 28, 2-chloro-5-(2-fluorophenyl)-5-methyl-3-phenyl-7H-thieno[2,3-b]pyridine-4,6-dione] | A (0%<A<50%) |
| CC1(c2ccccc2)C(=O)Nc2sc(Cl)c(-c3cccc(F)c3)c2C1=O (centres unmarked) [No 29, 2-chloro-3-(3-fluorophenyl)-5-methyl-5-phenyl-7H-thieno[2,3-b]pyridine-4,6-dione] | C (C≧75%) |
| CC1(c2ccccc2)C(=O)Nc2sc(Cl)c(-c3ccccc3F)c2C1=O (centres unmarked) [No 30, 2-chloro-3-(2-fluorophenyl)-5-methyl-5-phenyl-7H-thieno[2,3-b]pyridine-4,6-dione] | A (0%<A<50%) |
| Cc1ccc(C2(C)C(=O)Nc3sc(Cl)c(-c4ccccc4)c3C2=O)cc1 (centres unmarked) [No 31, 2-chloro-5-methyl-3-phenyl-5-(p-tolyl)-7H-thieno[2,3-b]pyridine-4,6-dione] | A (0%<A<50%) |
| CC1(c2ccc(F)cc2)C(=O)Nc2sc(Cl)c(-c3ccccc3)c2C1=O (centres unmarked) [No 32, 2-chloro-5-(4-fluorophenyl)-5-methyl-3-phenyl-7H-thieno[2,3-b]pyridine-4,6-dione] | A (0%<A<50%) |
| Cc1cccc(C2(C)C(=O)Nc3sc(Cl)c(-c4ccccc4)c3C2=O)c1 (centres unmarked) [No 33, 2-chloro-5-methyl-5-(m-tolyl)-3-phenyl-7H-thieno[2,3-b]pyridine-4,6-dione] | A (0%<A<50%) |
| Cc1ccc(-c2c(Cl)sc3c2C(=O)C(C)(c2ccccc2)C(=O)N3)cc1 (centres unmarked) [No 34, 2-chloro-5-methyl-5-phenyl-3-(p-tolyl)-7H-thieno[2,3-b]pyridine-4,6-dione] | A (0%<A<50%) |
| COc1ccc(C2(C)C(=O)Nc3sc(Cl)c(-c4ccccc4)c3C2=O)cc1 (centres unmarked) [No 35, 2-chloro-5-(4-methoxyphenyl)-5-methyl-3-phenyl-7H-thieno[2,3-b]pyridine-4,6-dione] | A (0%<A<50%) |
| COc1ccc(-c2c(Cl)sc3c2C(=O)C(C)(c2ccccc2)C(=O)N3)cc1 (centres unmarked) [No 36, 2-chloro-3-(4-methoxyphenyl)-5-methyl-5-phenyl-7H-thieno[2,3-b]pyridine-4,6-dione] | A (0%<A<50%) |
| CC1(c2ccc(F)cc2)C(=O)Nc2sc(Cl)c(-c3cccc(F)c3)c2C1=O (centres unmarked) [No 37, 2-chloro-3-(3-fluorophenyl)-5-(4-fluorophenyl)-5-methyl-7H-thieno[2,3-b]pyridine-4,6-dione] | A (0%<A<50%) |
| COc1cccc(C2(C)C(=O)Nc3sc(Cl)c(-c4ccccc4)c3C2=O)c1 (centres unmarked) [No 38, 2-chloro-5-(3-methoxyphenyl)-5-methyl-3-phenyl-7H-thieno[2,3-b]pyridine-4,6-dione] | A (0%<A<50%) |
| COc1ccc(-c2c(Cl)sc3c2C(=O)C(C)(c2ccc(F)cc2)C(=O)N3)cc1 (centres unmarked) [No 39, 2-chloro-5-(4-fluorophenyl)-3-(4-methoxyphenyl)-5-methyl-7H-thieno[2,3-b]pyridine-4,6-dione] | A (0%<A<50%) |
| COc1cccc(-c2c(Cl)sc3c2C(=O)C(C)(c2ccccc2)C(=O)N3)c1 (centres unmarked) [No 40, 2-chloro-3-(3-methoxyphenyl)-5-methyl-5-phenyl-7H-thieno[2,3-b]pyridine-4,6-dione] | A (0%<A<50%) |
| COc1cccc(-c2c(Cl)sc3c2C(=O)C(C)(c2ccc(C)cc2)C(=O)N3)c1 (centres unmarked) [No 41, 2-chloro-3-(3-methoxyphenyl)-5-methyl-5-(p-tolyl)-7H-thieno[2,3-b]pyridine-4,6-dione] | A (0%<A<50%) |
| COc1cccc(-c2c(Cl)sc3c2C(=O)C(C)(c2ccc(F)cc2)C(=O)N3)c1 (centres unmarked) [No 42, 2-chloro-5-(4-fluorophenyl)-3-(3-methoxyphenyl)-5-methyl-7H-thieno[2,3-b]pyridine-4,6-dione] | A (0%<A<50%) |
| COc1ccc(C2(C)C(=O)Nc3sc(Cl)c(-c4cccc(OC)c4)c3C2=O)cc1 (centres unmarked) [No 43, 2-chloro-3-(3-methoxyphenyl)-5-(4-methoxyphenyl)-5-methyl-7H-thieno[2,3-b]pyridine-4,6-dione] | A (0%<A<50%) |
| COc1cccc(-c2c(Cl)sc3c2C(=O)C(C)(c2cccc(C)c2)C(=O)N3)c1 (centres unmarked) [No 44, 2-chloro-3-(3-methoxyphenyl)-5-methyl-5-(m-tolyl)-7H-thieno[2,3-b]pyridine-4,6-dione] | A (0%<A<50%) |
